# PMC10810651, “Discovery of novel and potent CDK8 inhibitors for the treatment of acute myeloid leukaemia” (Journal of Enzyme Inhibition and Medicinal Chemistry, 2024)
# Where two headings read alike, the source gives them in different places.
# How the values were obtained:
# CDK8 = CDK8 (Homo sapiens, UniProt P49336); experiment: CDK8 enzyme activity assay (ADP-Glo Kinase Assay); type: biochemical; conditions: means ± SD; for inhibition at 0.2 µM: CDK8, 200 nM, two experiments, read-out: Inhibition rate @ 200 nM (%); for IC50: three experiments
# CDK8, sequence (P49336 whole entry): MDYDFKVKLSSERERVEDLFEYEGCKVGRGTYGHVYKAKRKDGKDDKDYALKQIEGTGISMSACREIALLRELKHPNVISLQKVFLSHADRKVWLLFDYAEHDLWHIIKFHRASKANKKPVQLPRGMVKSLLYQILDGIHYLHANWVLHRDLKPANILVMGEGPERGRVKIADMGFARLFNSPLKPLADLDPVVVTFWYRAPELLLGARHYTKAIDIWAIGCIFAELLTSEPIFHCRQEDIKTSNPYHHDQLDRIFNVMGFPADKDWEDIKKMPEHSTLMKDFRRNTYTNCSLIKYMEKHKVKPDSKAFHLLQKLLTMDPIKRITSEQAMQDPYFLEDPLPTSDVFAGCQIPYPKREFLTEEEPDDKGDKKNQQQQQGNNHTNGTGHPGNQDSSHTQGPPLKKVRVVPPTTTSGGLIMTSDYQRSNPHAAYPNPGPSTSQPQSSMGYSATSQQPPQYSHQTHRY
# CDK8, sequence (P24863 whole entry partner): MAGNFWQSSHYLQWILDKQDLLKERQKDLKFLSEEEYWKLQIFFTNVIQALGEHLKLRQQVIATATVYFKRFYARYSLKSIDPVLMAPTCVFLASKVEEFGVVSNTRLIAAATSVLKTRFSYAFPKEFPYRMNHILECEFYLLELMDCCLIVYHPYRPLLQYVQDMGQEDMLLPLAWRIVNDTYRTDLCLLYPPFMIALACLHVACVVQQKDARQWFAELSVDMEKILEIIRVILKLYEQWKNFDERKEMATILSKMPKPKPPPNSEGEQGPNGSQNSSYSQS
# Procedure: Some of them with high inhibition rates were further measured for their IC50 values. Compound SEL-120 34 A was selected as a positive control. [table] [table] page 14: CO2 atmosphere incubator for 24 h. Then, medium with compound at the concentrations of 100, 20, 4, 0.8, 0.016 μM was added into each well for another 48 h and incubated with CCK-8 (10 μL) for 2 h at 37 °C. The absorbance value at 450 nm was measured by the microplate reader (PerkinElmer Envision). 1.4 Kinase Assay The kinase inhibition was detected by ADP-Glo™ Kinase Assay (Promega) using a black 384-well plate. The active CDK8 kinase was diluted in mixture (5 ng enzyme, 0.5 μg substrate, 50 μM DTT, 1 μL reaction buffer and added ddH2O to 3 μL each well) and the final ATP concentrations of was 50 μM. After incubation at room temperature, ADP-Glo™ solution and kinase detection reagent was added. The data was collected by the microplate reader. 1.5 Cellular thermal shift assay HCT-116 cells were cultured in cell culture dishes and treated with 5 μM compound 12 for 4 h. HCT-116 cells were collected, washed by PBS and cell suspensions were divided into 12 PCR tubes equally. Then,11 tubes were heated at 37, […] After that, cells were broken by ultr asonic treatment and centrifuged at 12000 rpm for 20 min. The supernatant was analyzed by western blot. 1.6 Biotin-pulldown assay After co-treated with 2 μM biotinylated compound and compound 12 for 12 h, HCT-116 cells were lysed with NP-40 containing PMSF and centrifuged at 14000 r for 30 min at 4 °C. Then, 40 μL supernatant was used as the input by adding 10 μL 5×SDS loading buffer, and the remains were mixed with Streptavidin Agarose (Novex, Carlsbad, CA, USA). After 6 h incuba tion at 4 °C, the beads were washed three times using lysis buffer and resuspended in 2× SDS loading buffer. HEK -293T cells overexpressed flag -tagged CDK8 were treated using above method. The samples were analyzed by western blot.
# [1] = Caco-2 permeability determination; type: in vitro ADME; conditions: human; for Papp A→B: Caco-2, A→B; for Papp B→A: Caco-2, B→A
# SW480 = experiment: Antiproliferative CCK-8 assay, SW480; type: cell-based; conditions: Homo sapiens; SW480, CCK-8 assay, means ± SD; read-out: GC50 (the source's name)
# Description: (§1) Compounds12, 13 and 30 were selected for further cell activity assessments based on the enzymatic activity assessment results. molm-13 and MV4-11(acute myeloid lineage leukaemia cells), MGC-803 (gastric cancer cell), MDA-MB-231(breast cancer cell), A375 (melanoma cell), A549 (lung cancer cell), HCT-116, SW-480 and HT-29 (colorectal cancer cells) were selected to evaluate antitumor activity in vitro, GES-1 (gastric mucosal epithelial cell) was selected to evaluate toxicity in vitro.
# (§2) CO2 atmosphere incubator for 24 h. Then, medium with compound at the concentrations of 100, 20, 4, 0.8, 0.016 μM was added into each well for another 48 h and incubated with CCK-8 (10 μL) for 2 h at 37 °C. The absorbance value at 450 nm was measured by the microplate reader (PerkinElmer Envision). […]
# A375 = experiment: Antiproliferative CCK-8 assay, A375; type: cell-based; conditions: Homo sapiens, A-375; A375, CCK-8 assay, means ± SD; read-out: GC50 (the source's name)
# Description: as §1, §2
# GES-1 = experiment: In vitro toxicity CCK-8 assay, GES-1; type: cell-based; conditions: Homo sapiens, GES1, GES-1 gastric mucosal epithelial cell, read-out: GC50 (the source's name)
# Description: as §1, §2
# MGC-803 = experiment: Antiproliferative CCK-8 assay, MGC-803; type: cell-based; conditions: Homo sapiens; MGC-803, CCK-8 assay, means ± SD; read-out: GC50 (the source's name)
# Description: as §1, §2
# A549 = experiment: Antiproliferative CCK-8 assay, A549; type: cell-based; conditions: Homo sapiens; A549, CCK-8 assay, means ± SD; read-out: GC50 (the source's name)
# Description: as §1, §2
# MDA-MB-231 = experiment: Antiproliferative CCK-8 assay, MDA-MB-231; type: cell-based; conditions: Homo sapiens; MDA-MB-231, CCK-8 assay, means ± SD; read-out: GC50 (the source's name)
# Description: as §1, §2
# HT-29 = experiment: Antiproliferative CCK-8 assay, HT-29; type: cell-based; conditions: Homo sapiens; HT-29, CCK-8 assay, means ± SD; read-out: GC50 (the source's name)
# Description: as §1, §2
# MV4-11 = experiment: Antiproliferative CCK-8 assay, MV4-11; type: cell-based; conditions: Homo sapiens; MV4-11, CCK-8 assay, means ± SD; read-out: GC50 (the source's name)
# Description: as §1, §2
# molm-13 = experiment: Antiproliferative CCK-8 assay, molm-13; type: cell-based; conditions: Homo sapiens; molm-13, CCK-8 assay, means ± SD; read-out: GC50 (the source's name)
# Description: as §1, §2
# HCT-116 = experiment: Antiproliferative CCK-8 assay, HCT-116; type: cell-based; conditions: Homo sapiens; HCT-116, CCK-8 assay, means ± SD; read-out: GC50 (the source's name)
# Description: as §1, §2
# [2] = Caco-2, Caco-2, A→B, read-out: Recovery A→B
# [3] = Caco-2, Caco-2, B→A, read-out: Recovery B→A
Compound,inhibition at 0.2 µM (CDK8) [%],IC50 (CDK8) [nM],further results
COc1ccc(-c2c[nH]c3ncc(-c4cccc(C(N)=O)c4)cc23)cc1 [Compound 38],26.4 ± 1.6,–,–
NC(=O)c1cccc(-c2cnc3[nH]cc(-c4ccccc4Cl)c3c2)c1 [Compound 21],23.6 ± 2.6,–,–
COc1ccccc1-c1c[nH]c2ncc(-c3cccc(C(N)=O)c3)cc12 [Compound 25],62 ± 4.6,136 ± 5.3,–
CCc1ccccc1-c1c[nH]c2ncc(-c3cccc(C(N)=O)c3)cc12 [Compound 24],24.6 ± 2.4,–,–
Cc1ccccc1-c1c[nH]c2ncc(-c3cccc(C(N)=O)c3)cc12 [Compound 23],51.6 ± 2.6,193 ± 6.6,–
NC(=O)c1cccc(-c2cnc3[nH]cc(-c4ccc(OC(F)(F)F)cc4)c3c2)c1 [Compound 40],46.3 ± 1.9,–,–
NC(=O)c1cccc(-c2cnc3[nH]cc(-c4ccccc4F)c3c2)c1 [Compound 20],58.7 ± 3.3,161 ± 3.1,–
Cn1ccc2cc(-c3cccc(C(N)=O)c3)ccc21 [Compound 8],51.7 ± 5.4,255 ± 4.5,–
NC(=O)c1cccc(-c2cnc(N)c(Cl)c2)c1 [Compound 4],45.6 ± 4.2,–,–
NC(=O)c1cccc(-c2cnc3[nH]cc(Cl)c3c2)c1 [Compound 11],51.8 ± 4.3,–,–
NC(=O)c1cccc(-c2cnc3[nH]cc(-c4cccc(C(F)(F)F)c4)c3c2)c1 [Compound 33],34.6 ± 4.1,–,–
NC(=O)c1cccc(-c2cnc3[nH]cc(-c4ccc(C(F)(F)F)cc4)c3c2)c1 [Compound 39],22.3 ± 3.7,–,–
NC(=O)c1cccc(-c2cnc3[nH]cc(-c4ccccc4O)c3c2)c1 [Compound 22],36.2 ± 2.7,–,–
CC(C)NCC(O)COc1cccc2ccccc12 (centres unmarked) [Propranolol],–,–,"recovery [1, 2]: 99.9%; recovery [1, 3]: 107%; Papp A→B [1]: 40.2 ×10⁻⁶ cm/s; Papp B→A [1]: 34.1 ×10⁻⁶ cm/s"
NC(=O)c1cccc(-c2cnc3[nH]cc(-c4cccc(O)c4)c3c2)c1 [Compound 31],30.5 ± 2.3,–,–
CC(C)c1ccccc1-c1c[nH]c2ncc(-c3cccc(C(N)=O)c3)cc12 [Compound 26],33.1 ± 4.2,–,–
NC(=O)c1cccc(-c2cnc3[nH]cc(-c4cccc(Cl)c4)c3c2)c1 [Compound 30],65.5 ± 3.8,86.7 ± 6.5,IC50 (SW480): > 50000 nM; IC50 (A375): > 50000 nM; IC50 (GES-1): > 100000 nM; IC50 (MGC-803): > 50000 nM; IC50 (A549): > 50000 nM; IC50 (MDA-MB-231): > 50000 nM; IC50 (HT-29): > 50000 nM; IC50 (MV4-11): > 50000 nM; IC50 (molm-13): > 50000 nM; IC50 (HCT-116): > 50000 nM
NC(=O)c1cccc(-c2cnc3[nH]cc(-c4ccccc4)c3c2)c1 [Compound 19],57.4 ± 1.4,158 ± 4.3,–
NC(=O)c1cccc(-c2cnc3[nH]cc(-c4ccc(O)cc4)c3c2)c1 [Compound 37],28.3 ± 3.1,–,–
NC(=O)c1cccc(-c2cnc3[nH]cc(-c4ccccc4OC(F)(F)F)c3c2)c1 [Compound 28],16.9 ± 2.2,–,–
NC(=O)c1cccc(-c2cnc3[nH]cc(-c4cn[nH]c4)c3c2)c1 [Compound 15],49.1 ± 3.4,–,–

Compound,inhibition at 0.2 µM (CDK8) [%],IC50 (CDK8) [nM],further results
Cn1cc(-c2c[nH]c3ncc(-c4cccc(C(N)=O)c4)cc23)cn1 [Compound 16],29.5 ± 2.3,–,–
COc1cccc(-c2c[nH]c3ncc(-c4cccc(C(N)=O)c4)cc23)c1 [Compound 32],44 ± 3.8,–,–
NC(=O)c1cccc(-c2cnc3[nH]cc(-c4cccc(F)c4)c3c2)c1 [Compound 29],23.1 ± 2.5,–,–
NC(=O)c1cccc(-c2cnc3[nH]cc(-c4ccccc4C(F)(F)F)c3c2)c1 [Compound 27],15.9 ± 5.2,–,–
NC(=O)c1cccc(-c2cncc3ccccc23)c1 [Compound 5],55.7 ± 3.8,186 ± 4.5,–
NC(=O)c1cccc(-c2ccc(N)nc2)c1 [Compound 3],50.8 ± 2.3,177 ± 7.2,–
NC(=O)c1cccc(-c2ccc3[nH]ccc3c2)c1 [Compound 7],59.1 ± 2.1,212 ± 6.1,–
NC(=O)c1cccc(-c2cnc3[nH]cc(-c4ccc(F)cc4)c3c2)c1 [Compound 35],55.8 ± 4.6,–,–
NC(=O)c1cccc(-c2cnc(N)c3ccccc23)c1 [Compound 6],75.8 ± 5.9,64.5 ± 3.8,–
NC(=O)c1cccc(-c2ccc3sccc3c2)c1 [Compound 10],38.3 ± 2.2,–,–
C[C@H]1O[C@@H](O[C@H]2[C@@H](O)C[C@H](O[C@H]3[C@@H](O)C[C@H](O[C@H]4CC[C@@]5(C)[C@H](CC[C@@H]6[C@@H]5C[C@@H](O)[C@]5(C)[C@@H](C7=CC(=O)OC7)CC[C@]65O)C4)O[C@@H]3C)O[C@@H]2C)C[C@H](O)[C@@H]1O [Digoxin],–,–,"efflux ratio ([1]; Caco-2): 6.2; recovery [1, 2]: 92.5%; recovery [1, 3]: 99.2%; Papp A→B [1]: 0.9 ×10⁻⁶ cm/s; Papp B→A [1]: 5.6 ×10⁻⁶ cm/s"
NC(=O)c1cccc(-c2cnc3[nH]ncc3c2)c1 [Compound 2],35.2 ± 2.8,–,–
NC(=O)c1cccc(-c2cnc3[nH]ccc3n2)c1 [Compound 1],63 ± 4.5,106 ± 4.6,–
CC(C)(C)NCC(O)COc1cccc2c1CC(O)C(O)C2 (centres unmarked) [Nadolol],–,–,"recovery [1, 3]: 111%; Papp A→B [1]: 0.2 ×10⁻⁶ cm/s; Papp B→A [1]: 0.5 ×10⁻⁶ cm/s"
CCOC(C)n1cc(-c2c[nH]c3ncc(-c4cccc(C(N)=O)c4)cc23)cn1 (centres unmarked) [Compound 17],46.5 ± 1.8,–,–
NC(=O)c1cccc(-c2cnc3[nH]cc(-c4cccs4)c3c2)c1 [Compound 14],52.5 ± 2.8,186 ± 4.6,–
NC(=O)c1cccc(-c2ccc3occc3c2)c1 [Compound 9],60.4 ± 4.3,190 ± 4.9,–
NC(=O)c1cccc(-c2cnc3[nH]cc(-c4cccc(OC(F)(F)F)c4)c3c2)c1 [Compound 34],23.4 ± 3.3,–,–
NC(=O)c1cccc(-c2cnc3[nH]cc(-c4ccc(Cl)cc4)c3c2)c1 [Compound 36],61.6 ± 5.4,128 ± 3.8,–
NC(=O)c1cccc(-c2cnc3[nH]cc(-c4cnn(C(F)F)c4)c3c2)c1 [Compound 18],32.5 ± 4.9,–,–
